Results reported in patent US20240024317A1, “CANCER TREATMENT USING BOSENTAN IN COMBINATION WITH A CHECKPOINT INHIBITOR” (Materia Therapeutics Inc., priority 2020, published 2024).

Tests used:
Format in all cases: in vivo, mice
4T1 tumors = assay: CD3/CD31 immunofluorescence: T cell proximity to endothelial cells and area fractions
Protocol: Because reducing collagen I levels and tissue stiffness decompresses vessels, it was hypothesized that hypoxia, which is an indicator of decreased blood flow to the tumor, would be reduced with bosentan treatment. […] For the hypoxia studies, Mice bearing orthotopic E0771 or 4T1 breast tumors were injected (intraperitoneal) with 60 mg/kg of pimonidazole HCl at 2 hr prior to tumor removal. Prior to tumors excision, animals were anesthetized via Avertin (200 mg/kg, intraperitoneal). Primary tumors were then excised, fixed in 4% PFA, embedded in OCT and processed accordingly for IHC. Hypoxic regions were detected using the mouse anti-pimonidazole RED 549 conjugate antibody (HP7-100Kit, 1:100). Hypoxic area fraction across different treatment groups was normalized to DAPI staining. For fluorescent immunohistochemistry, tumors were removed, washed twice in 1× PBS for 10 min and incubated with 4% PFA overnight at 4° C. The fixative was aspirated, and samples washed twice in 1× PBS for 10 min. Fixed tissues were embedded in optimal cutting temperature compound in cryomolds (Tissue-Tek) and frozen completely at −20° C. Transverse 30 μm thick tumor sections were produced using the Tissue-Tek Cryo3 (SAKURA). Positively charged HistoBond microscope slides (Marienfeld) were used to bond four tissue sections per tumor. Tumor sections were then incubated in blocking solution (10% fetal bovine serum, 3% donkey serum, 1× PBS) for 2h and immunostained with the following primary antibodies; rabbit anti-Collagen I (ab4710, Abcam 1:100), rabbit anti-CD31 (ab28364, Abcam 1:50), rat anti-CD3 (17A2, BioLegend 1:50) and aSMA (ab5694, Abcam 1:50) overnight at 4° C. Secondary antibodies against rabbit, mouse or rat conjugated to Alexa Fluor 488 or 647 (Invitrogen) were used at 1:400 dilution. […] CD31 signal was detected with Alexa Fluor-488 anti-rabbit IgG (H+L) and CD3 signal with Alexa Fluor-647 anti-rat IgG (H+L) secondary antibodies. Tumor associated T cell and vessel content was determined by the CD31 and CD3 area fraction normalized to DAPI staining. […]

E0771 tumors = assay: Interstitial fluid pressure (IFP), wick-in-needle technique; details: 1 mg/kg bosentan
Protocol: (§1) Mice bearing syngeneic, orthotopic triple negative breast cancer (TNBC) were treated with a range of sub-therapeutic doses of bosentan, from 0.2 mg/kg to 10 mg/kg of body weight. Orthotopic models for murine mammary tumors were generated by implantation of 5×10^4 4T1 or E0771 cancer cells in 40 μl of serum-free medium into the third mammary fat pad of 6-8-week-old BALB/c and C57BL/6 female mice, respectively. 4T1 (ATCC® CRL-2539TH) and E0771 (94A001, CH3 BioSystems) mouse breast adenocarcinoma cell lines were purchased form ATCC and CH3 BioSystems, respectively. The cells were maintained at 37° C./5% CO2 in Roswell Park Memorial Institute medium (RPMI-1640, LM-R1637, Biosera) supplemented with 10% fetal bovine serum (FBS, FB-1001H, biosera) and 1% antibiotics (A5955, Sigma). Bosentan (bosentan Hydrate (S3051, Selleckchem) was dissolved in ddH2O containing 2% DMSO (GK2245, Glentham Life Science), 30% PEG300 (S6704, Selleckchem) and 2% Tween 80 (S6702, Selleckchem)) 1 mg/kg, 5 mg/kg, 10 mg/kg or equal volume of diluent (control group) was administered by intraperitoneal injection (i.p.) once a day for 10 days, starting from once the tumor volumes reached an average size of 100 mm^3. Tumors were excised when they reached an average size of 500 mm^3. Tissue stiffness was then measured non-invasively and longitudinally using ultrasound elastography. […]

[1] = Mouse body weight under bosentan monotherapy; details: bosentan monotherapy at any dose
Protocol: as §1

COc1ccccc1Oc1c(NS(=O)(=O)c2ccc(C(C)(C)C)cc2)nc(-c2ncccn2)nc1OCCO [bosentan, 4-tert-butyl-N-[6-(2-hydroxy-ethoxy)-5-(2-methoxy-phenoxy)-2-(pyrimidin-2-yl)pyrimidin-4-yl] benzenesulfonamide]
T cells colocalizing with endothelial cells (CD3+/CD31+ proximity) (4T1 tumors): more T cells colocalizing with endothelial cells
area fraction of CD3+ staining (4T1 tumors): no change
area fraction of CD31+ staining (4T1 tumors): no change
interstitial fluid pressure (E0771 tumors): decrease in interstitial fluid pressure
mouse body weight [1]: did not affect
